Assays:
Assay type in all cases: cell-based
[1] = system: 5HT2A sensor; experiment: 5HT2A sensor assay, agonist mode (sLight1.3s HEK293T stable line); settings: percent relative to 5-HT at 100 uM; for 5HT2A Agonist mean @ 100 nM (%): 100 nM compound; for 5HT2A Agonist mean @ 10 μM (%): 10 μM compound; for 5HT2A Agonist mean @ 100 μM (%): 100 μM compound
Procedure, shortened: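 Agonist mode in HEK293T cells stably expressing the sLight1.3 5HT2A sensor, washed into HBSS; compounds at final 100 μM, 10 μM and 100 nM (0.1% DMSO), triplicate wells. Membrane fluorescence (ex 460, em 512-542 nm) imaged before and after addition; dFF=(Fsat−Fapo)/Fapo, expressed as percent activation (DMSO=0, 5HT=100).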

[2] = system: 5HT2A sensor; experiment: 5HT2A sensor assay, antagonist mode (sLight1.3s HEK293T stable line); settings: relative to 5-HT at 100 nM; for 5HT2A Antagonist mean @ 100 nM (%): 100 nM compound; for 5HT2A Antagonist mean @ 10 μM (%): 10 μM compound; for 5HT2A Antagonist mean @ 100 μM (%): 100 μM compound
Procedure, shortened: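 Inactivation score is computed from membrane dFF as (dFF(compound+5HT)−dFF(5HT))/dFF(5HT), with HBSS-only fluorescence as Fapo. Final concentrations: 5-HT 100 nM added first, then compound at 100 nM, 10 μM or 100 μM in 0.1% DMSO. Triplicates; FITC imaging, 5 fields per well.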

[3] = biological target: T1, 5HT2A (Homo sapiens, UniProt P28223); experiment: Calcium flux assay (Calcium secondary messenger pathway); settings: agonist mode
T1 construct: expressed in transfected cells
T1 sequence (P28223 whole entry): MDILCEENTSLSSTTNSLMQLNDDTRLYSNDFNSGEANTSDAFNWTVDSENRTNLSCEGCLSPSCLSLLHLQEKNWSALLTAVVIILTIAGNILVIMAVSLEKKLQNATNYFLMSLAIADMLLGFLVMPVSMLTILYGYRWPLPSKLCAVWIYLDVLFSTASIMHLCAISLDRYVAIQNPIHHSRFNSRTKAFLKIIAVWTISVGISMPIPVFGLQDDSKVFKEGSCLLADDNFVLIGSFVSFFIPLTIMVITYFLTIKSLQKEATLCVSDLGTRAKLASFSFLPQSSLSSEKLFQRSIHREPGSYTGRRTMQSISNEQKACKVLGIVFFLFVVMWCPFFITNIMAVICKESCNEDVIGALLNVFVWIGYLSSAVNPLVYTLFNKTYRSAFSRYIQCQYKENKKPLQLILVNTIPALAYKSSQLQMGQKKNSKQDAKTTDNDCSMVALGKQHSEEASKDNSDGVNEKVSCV
Procedure, shortened: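 Gq-coupled calcium mobilization in cells stably expressing 5HT2A, loaded 30–60 min at 37 °C with calcium-sensitive dye in HBSS/20 mM Hepes with 2.5 mM probenecid. Compound added 5 s into a 2-min FLIPR Tetra fluorescence read at room temperature; % activity relative to vehicle and maximal control-ligand RFU.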

Structure (SMILES)	5HT2A Agonist mean @ 100 nM (%) [1]	5HT2A Agonist mean @ 10 μM (%) [1]	5HT2A Agonist mean @ 100 μM (%) [1]	5HT2A Antagonist mean @ 100 nM (%) [2]	5HT2A Antagonist mean @ 10 μM (%) [2]	5HT2A Antagonist mean @ 100 μM (%) [2]	EC50 [3]
COc1cccc2c1ccn2CCN(C)C.O=C(O)/C=C/C(=O)O [Example 3, 2-(4-methoxy-1H-indol-1-yl)-N,N-dimethylethan-1-amine]	B (does not activate 5HT2A sensor assay in agonist mode)	B (does not activate 5HT2A sensor assay in agonist mode)	B (does not activate 5HT2A sensor assay in agonist mode)	A (inhibits 5HT response by >100%)	A (inhibits 5HT response by >100%)	A (inhibits 5HT response by >100%)	> 10 µM
COc1ccc2c(ccn2CCN(C)C)c1.O=C(O)/C=C/C(=O)O [Example 4, 2-(5-methoxy-1H-indol-1-yl)-N,N-dimethylethan-1-amine]	B (does not activate 5HT2A sensor assay in agonist mode)	B (does not activate 5HT2A sensor assay in agonist mode)	A (activates 5HT2A sensor assay in agonist mode)	C (inhibits 5HT response by <75%)	B (inhibits 5HT response by 75% to 100%)	B (inhibits 5HT response by 75% to 100%)	> 10 µM
COc1ccc2ccn(CCN(C)C)c2c1 [Example 5, 2-(6-methoxy-1H-indol-1-yl)-N,N-dimethylethan-1-amine]	B (does not activate 5HT2A sensor assay in agonist mode)	B (does not activate 5HT2A sensor assay in agonist mode)	A (activates 5HT2A sensor assay in agonist mode)	B (inhibits 5HT response by 75% to 100%)	B (inhibits 5HT response by 75% to 100%)	B (inhibits 5HT response by 75% to 100%)	< 10 µM
COc1cccc2ccn(CCN(C)C)c12.O=C(O)/C=C/C(=O)O [Example 6, 2-(7-methoxy-1H-indol-1-yl)-N,N-dimethylethan-1-amine]	B (does not activate 5HT2A sensor assay in agonist mode)	B (does not activate 5HT2A sensor assay in agonist mode)	B (does not activate 5HT2A sensor assay in agonist mode)	A (inhibits 5HT response by >100%)	A (inhibits 5HT response by >100%)	A (inhibits 5HT response by >100%)	< 10 µM
COc1ccc2c(ccn2C[C@@H](C)N(C)C)c1 [Example 59, (R)-1-(5-methoxy-1H-indol-1-yl)-N,N-dimethylpropan-2-amine]	B (does not activate 5HT2A sensor assay in agonist mode)	B (does not activate 5HT2A sensor assay in agonist mode)	B (does not activate 5HT2A sensor assay in agonist mode)	B (inhibits 5HT response by 75% to 100%)	A (inhibits 5HT response by >100%)	A (inhibits 5HT response by >100%)	> 10 µM
C[C@H](Cn1ccc2cc(F)ccc21)N(C)C [Example 60, (R)-1-(5-fluoro-1H-indol-1-yl)-N,N-dimethylpropan-2-amine]	B (does not activate 5HT2A sensor assay in agonist mode)	B (does not activate 5HT2A sensor assay in agonist mode)	A (activates 5HT2A sensor assay in agonist mode)	C (inhibits 5HT response by <75%)	B (inhibits 5HT response by 75% to 100%)	B (inhibits 5HT response by 75% to 100%)	> 10 µM
